From patent publication US12264156B2, “Compounds and pharmaceutical compositions thereof for the treatment of diseases” (GALAPAGOS NV, priority 2018, dated 2025) come the findings set out here.

As a reminder, the EC50 is the concentration needed to bring the measured effect to its halfway point.

In assay [1] the test system is LPS-induced TNFα in monocytes. Description: Monocytes assay: LPS-triggered TNFα (ELISA). Conditions: Homo sapiens, Monocyte, LPS 200 ng/mL, supernatant after 4 h. The format is cell-based, human. The method in brief:
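Human CD14+ monocytes from buffy-coat PBMCs (magnetic bead selection) were seeded at 100 000 cells/well and pretreated with compound for 1 h at 37° C (0.2% DMSO). They were then stimulated with 200 ng/mL LPS for 4 h, and supernatant TNFα was measured by chemiluminescent sandwich ELISA as percent inhibition.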
On the technique in general: ELISA stands for enzyme-linked immunosorbent assay.

In assay [2] the test system is LPS triggered IL-10 secretion in monocytes. Briefly: Monocytes assay: LPS-triggered IL-10 (ELISA). The format is cell-based, human. The conditions noted are these: LPS 200 ng/mL, supernatant after 4 h, maximal fold change vs LPS only. In short, it runs like this:
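Human CD14+ monocytes, magnetically isolated from buffy-coat PBMCs, were seeded at 100 000 cells/well and preincubated with compound for 1 h at 37° C (0.2% DMSO). LPS was then added at a final 200 ng/mL for 4 h. Supernatant IL-10 was quantified by chemiluminescent sandwich ELISA against a standard curve.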

The subject of another assay is TNFα. Description: Mouse LPS-induced endotoxic shock, plasma TNFα. The class given is in vivo. The arrangement: key: +: statistically significant inhibition of TNFα; −: no effect on the level of TNFα. Conditions: p.o., plasma 90 min after LPS challenge. The method, then: (§1) Injection of lipopolysaccharide (LPS) induces a rapid release of soluble tumour necrosis factor (TNFα) into the periphery. This model was used to assess prospective blockers of TNFα release in vivo.
(§2) Lipopolysaccharide (LPS) from Escherichia Coli serotype O111:B4 was obtained from Sigma Aldrich (Cat #L2630).
(§3) BALB/cAnNCrl mice (female, 18-20 g body weight) were obtained from Charles River (Calco, Italy). Mice were kept on a 12 h light/dark cycle. Temperature was maintained at 22±2° C., food and water were provided ad libitum.
(§4) Mice were dosed once by oral (p.o.) or subcutaneous (sc) route with the tested compound in the appropriate vehicle.
(§5) At the Tmax of compound, 100 μg of LPS (in H2O) was injected intraperitoneally to mice. A control group was included which comprises administering the vehicle without an LPS challenge.
(§6) Mice were sacrificed 90 min after LPS challenge and blood was collected in heparinised tubes. Plasma was obtained by centrifugation for 15 min, 2000×g at +4° C. and frozen at −80° C. before cytokine analysis.
(§7) TNFα and IL-10 were quantified in plasma by AlphaLISA detection kits obtained from PerkinElmer (Massachusetts, USA), Cat4 AL505C and AL502C, respectively.
(§8) Statistics were performed with Prism 5.03 software (GraphPad) using an ANOVA analysis of variance with Dunnett's post-hoc test versus LPS group.
(§9) Active compounds were defined as showing a statistically significant decrease in TNFα with or without a statistically significant induction of IL-10

Another assay deals with IL-10. Description: Mouse LPS-induced endotoxic shock, plasma IL-10. The class given is in vivo. Conditions: p.o., plasma 90 min after LPS challenge. Also noted: key: +: statistically significant induction of IL-10; −: no effect on the level of IL-10. The method, then: as §1, §2, §3, §4, §5, §6, §7, §8, §9

`COc1cc(-c2cnc3cc(OC[C@H]4COCCO4)ccn23)cc2c1C(=O)N(CC(F)(F)F)CC2` [Cpd 86, 6-[7-[[(2R)-1,4-dioxan-2-yl]methoxy]imidazo[1,2-a]pyridin-3-yl]-8-methoxy-2-(2,2,2-trifluoroethyl)-3,4-dihydroisoquinolin-1-one]: in assay [1] (4 h), the EC50 lay within 100 to 1000 nM. Besides, the “IL-10 FCmax median” value in assay [2] is “+++ (>4.5)”. The TNFα entry with TNFα (3 mg/kg) and in the assay on TNFα (10 mg/kg) was “+” in each case. Also, the IL-10 entry in the assay with IL-10 (3 mg/kg) and in the assay with IL-10 (10 mg/kg) was “+” throughout.

The molecule `COc1cc(-c2cnc3cc(OCCN4CCOCC4)ccn23)cc2c1C(=O)N(CC(F)(F)F)CC2` [Cpd 88, 8-methoxy-6-[7-(2-morpholinoethoxy)imidazo [1,2-a]pyridin-3-yl]-2-(2,2,2-trifluoroethyl)-3,4-dihydroisoquinolin-1-one] showed an EC50 in assay [1] of 100 to 1000 nM. Besides, the “IL-10 FCmax median” value in assay [2] is reported as “+++ (>4.5)”. In addition, the TNFα entry in the assay with TNFα (3 mg/kg), in the assay on TNFα (10 mg/kg) and with TNFα (30 mg/kg) was “+” throughout. The figures for the IL-10 entry in the assay on IL-10 (3 mg/kg), with IL-10 (10 mg/kg) and with IL-10 (30 mg/kg) were “−”, “+” and “+”, respectively.

For `COc1cc(-c2cnc3cc(OCCN(C)C)ccn23)cc2c1C(=O)N(CC(F)(F)F)CC2` [Cpd 18, 6-[7-[2-(dimethylamino)ethoxy]imidazo[1,2-a]pyridin-3-yl]-8-methoxy-2-(2,2,2-trifluoroethyl)-3,4-dihydroisoquinolin-1-one], the TNFα entry with TNFα (3 mg/kg) and in the assay on TNFα (10 mg/kg) was “−” in each case. Moreover, the IL-10 result in the assay on IL-10 (3 mg/kg) and in the assay with IL-10 (10 mg/kg) was “−” throughout.

On to `COc1cc(-c2cnc3cc(OC[C@@H]4COCCO4)ccn23)cc2c1C(=O)N(CC(F)(F)F)CC2` [compound 225, 6-[7-[[(2S)-1,4-dioxan-2-yl]methoxy]imidazo[1,2-a]pyridin-3-yl]-8-methoxy-2-(2,2,2-trifluoroethyl)-3,4-dihydroisoquinolin-1-one], for which the half-maximal effective concentration (EC50) in assay [1] (4 h) fell in the range of 100 to 1000 nM. Moreover, the “IL-10 FCmax median” value in assay [2] is “+++ (>4.5)”. Besides, the TNFα entry in the assay with TNFα (3 mg/kg) and in the assay with TNFα (10 mg/kg) was “+” throughout. Also, the IL-10 entry in the assay on IL-10 (3 mg/kg) and with IL-10 (10 mg/kg) was “+” in each case.

With `COc1cc(-c2cnc3cc(OCCN(C)C)ccn23)cc(OC(F)F)c1C(=O)NC1CC1` [Cpd 6, N-cyclopropyl-2-(difluoromethoxy)-4-[7-[2-(dimethylamino)ethoxy]imidazo[1,2-a]pyridin-3-yl]-6-methoxy-benzamide], in assay [1] (4 h), the EC50 lay in the range of 100 to 1000 nM. Further, the “IL-10 FCmax median” value in assay [2] is on record as “+++ (>4.5)”. The TNFα result in the assay on TNFα (3 mg/kg) was “−”; in the assay on TNFα (10 mg/kg), “+”. In addition, the IL-10 result was “−” with IL-10 (3 mg/kg) and “+” in the assay on IL-10 (10 mg/kg).
